Data from ChEMBL document CHEMBL1137573, “Cyclooxygenase-2 inhibitors. 1,5-diarylpyrrol-3-acetic esters with enhanced inhibitory activity toward cyclooxygenase-2 and improved cyclooxygenase-2/cyclooxygenase-1 selectivity” (J Med Chem, 2007).

Tests used:
[1] = molecular target: T1, Prostaglandin G/H synthase 1 (Mus musculus, UniProt P22437); experiment: Inhibition of COX1 in mouse J774 cells assessed as arachidonic acid-induced PGE2 levels by radio immunoassay; type: cell-based
T1 sequence (P22437 whole entry): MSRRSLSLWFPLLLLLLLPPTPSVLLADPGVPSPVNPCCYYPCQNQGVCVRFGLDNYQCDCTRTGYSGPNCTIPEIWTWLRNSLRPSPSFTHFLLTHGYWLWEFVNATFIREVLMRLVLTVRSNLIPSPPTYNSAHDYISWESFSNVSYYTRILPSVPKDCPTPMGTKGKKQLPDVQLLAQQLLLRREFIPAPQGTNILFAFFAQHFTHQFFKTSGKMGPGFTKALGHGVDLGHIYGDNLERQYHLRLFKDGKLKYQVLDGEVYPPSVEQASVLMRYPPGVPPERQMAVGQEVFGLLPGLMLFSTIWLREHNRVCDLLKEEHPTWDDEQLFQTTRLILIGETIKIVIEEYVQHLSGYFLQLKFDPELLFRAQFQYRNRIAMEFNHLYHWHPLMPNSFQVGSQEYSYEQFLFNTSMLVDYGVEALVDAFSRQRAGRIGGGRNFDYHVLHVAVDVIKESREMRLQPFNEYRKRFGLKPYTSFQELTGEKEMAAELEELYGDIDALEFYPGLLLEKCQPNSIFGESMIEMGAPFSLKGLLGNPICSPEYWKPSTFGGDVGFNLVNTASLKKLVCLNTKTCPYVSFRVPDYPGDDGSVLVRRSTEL

Mus musculus [2] = species on record: Mus musculus; experiment: Selectivity ratio of IC50 for mouse COX1 to IC50 for mouse COX2
[3] = molecular target: T2, Prostaglandin G/H synthase 2 (Mus musculus, UniProt Q05769)
T2 sequence (Q05769 whole entry): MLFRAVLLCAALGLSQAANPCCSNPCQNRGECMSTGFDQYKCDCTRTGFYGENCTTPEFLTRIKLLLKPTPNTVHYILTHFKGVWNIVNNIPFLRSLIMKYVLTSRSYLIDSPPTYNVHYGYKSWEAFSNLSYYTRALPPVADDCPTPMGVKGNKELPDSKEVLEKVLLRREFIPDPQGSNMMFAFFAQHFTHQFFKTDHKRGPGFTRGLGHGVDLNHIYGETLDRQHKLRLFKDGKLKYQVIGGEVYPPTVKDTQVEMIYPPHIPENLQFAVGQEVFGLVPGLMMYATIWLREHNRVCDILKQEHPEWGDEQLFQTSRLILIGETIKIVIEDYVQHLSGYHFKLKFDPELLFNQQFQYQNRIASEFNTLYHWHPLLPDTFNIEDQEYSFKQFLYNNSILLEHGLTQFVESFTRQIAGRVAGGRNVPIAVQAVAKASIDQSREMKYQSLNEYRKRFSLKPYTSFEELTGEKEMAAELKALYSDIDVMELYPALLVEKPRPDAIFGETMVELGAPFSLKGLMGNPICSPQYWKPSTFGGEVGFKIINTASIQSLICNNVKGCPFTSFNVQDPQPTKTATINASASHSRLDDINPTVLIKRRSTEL
Description: Inhibition of COX2 in LPS-stimulated J774 cells assessed as inhibition of PGE2 levels by radioimmunoassay

[4] = molecular target: Prostaglandin G/H synthase 1 (Homo sapiens, UniProt P23219); experiment: Inhibition of COX1 in human whole blood assessed as TXB2 production; type: tissue-based
Sequence of Prostaglandin G/H synthase 1 (Homo sapiens, UniProt P23219) (P23219 whole entry): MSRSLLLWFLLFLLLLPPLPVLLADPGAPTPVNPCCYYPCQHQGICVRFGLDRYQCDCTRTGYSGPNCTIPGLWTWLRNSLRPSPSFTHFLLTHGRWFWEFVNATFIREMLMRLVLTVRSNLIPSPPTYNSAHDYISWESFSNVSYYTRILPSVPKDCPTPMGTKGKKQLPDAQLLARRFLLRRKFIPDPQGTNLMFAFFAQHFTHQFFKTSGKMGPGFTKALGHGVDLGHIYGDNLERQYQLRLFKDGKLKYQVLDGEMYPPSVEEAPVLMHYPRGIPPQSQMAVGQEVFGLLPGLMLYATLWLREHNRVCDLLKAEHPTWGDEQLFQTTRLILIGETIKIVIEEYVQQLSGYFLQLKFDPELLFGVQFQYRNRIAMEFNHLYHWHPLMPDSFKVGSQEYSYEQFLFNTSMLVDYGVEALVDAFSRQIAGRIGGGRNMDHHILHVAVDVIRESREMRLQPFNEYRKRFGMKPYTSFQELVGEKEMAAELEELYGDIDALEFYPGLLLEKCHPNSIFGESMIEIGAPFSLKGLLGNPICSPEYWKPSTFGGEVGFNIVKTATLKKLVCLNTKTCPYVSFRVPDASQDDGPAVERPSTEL

Rattus norvegicus [5] = experiment: Antiinflammatory activity against carrageenan-induced hyperalgesia in rat assessed as paw pressure in rat at 20 mg/kg, po after 120 mins; type: functional
Mus musculus [6] = experiment: Analgesic activity against acetic acid induced abdominal constriction in Swiss Albino mouse assessed as number of writhings at 20 mg/kg, po after 10 mins; type: functional, Abdomen
[7] = molecular target: T3, Prostaglandin G/H synthase 2 (Homo sapiens, UniProt P35354); experiment: Inhibition of COX2 in LPS-induced monocyte assessed as PGE2 production in human whole blood
T3 sequence (P35354 whole entry): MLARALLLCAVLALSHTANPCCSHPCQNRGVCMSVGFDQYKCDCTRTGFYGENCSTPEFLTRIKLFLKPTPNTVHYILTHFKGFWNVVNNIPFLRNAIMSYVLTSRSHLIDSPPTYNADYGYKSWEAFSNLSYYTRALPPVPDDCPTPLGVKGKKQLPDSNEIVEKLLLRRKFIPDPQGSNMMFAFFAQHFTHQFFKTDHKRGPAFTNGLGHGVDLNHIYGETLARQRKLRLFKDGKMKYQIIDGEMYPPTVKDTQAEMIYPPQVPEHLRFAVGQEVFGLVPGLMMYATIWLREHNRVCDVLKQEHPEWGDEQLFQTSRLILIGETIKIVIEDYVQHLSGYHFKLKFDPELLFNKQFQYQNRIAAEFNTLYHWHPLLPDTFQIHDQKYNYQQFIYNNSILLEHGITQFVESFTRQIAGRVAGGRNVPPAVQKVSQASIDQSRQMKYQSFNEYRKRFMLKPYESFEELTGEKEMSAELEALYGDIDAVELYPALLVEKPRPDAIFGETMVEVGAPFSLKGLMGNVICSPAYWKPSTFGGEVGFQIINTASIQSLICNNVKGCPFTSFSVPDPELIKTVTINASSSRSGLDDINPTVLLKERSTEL

Rattus norvegicus [8] = experiment: Antiinflammatory activity against carrageenan-induced hyperalgesia in rat assessed as paw pressure in rat at 20 mg/kg, po after 30 mins; type: functional
Mus musculus [9] = experiment: Analgesic activity against acetic acid induced abdominal constriction in Swiss Albino mouse assessed as number of writhings at 10 mg/kg, po after 10 mins; type: functional, Abdomen
Rattus norvegicus [10] = experiment: Antiinflammatory activity against carrageenan-induced hyperalgesia in rat assessed as paw pressure in rat at 20 mg/kg, po after 60 mins; type: functional
Rattus norvegicus [11] = experiment: Antiinflammatory activity against carrageenan-induced paw edema in rat at 20 mg/kg, po; type: functional

Structure (SMILES) | IC50 [1] | Ratio IC50 (Mus musculus [2]) | IC50 [3] | other results
CCOC(=O)Cc1cc(-c2ccc(S(C)(=O)=O)cc2)n(-c2ccc(F)c(F)c2)c1C | > 100 µM | > 5000 |  | 
CCOC(=O)C(=O)c1cc(-c2ccc(S(C)(=O)=O)cc2)n(-c2ccc(F)c(F)c2)c1C | > 100 µM | > 12 | 8.4 µM | 
CCOC(=O)Cc1cc(-c2ccc(S(C)(=O)=O)cc2)n(-c2ccc(F)cc2)c1C | > 100 µM | > 10000 | 0.01 µM | 
CCOC(=O)C(=O)c1cc(-c2ccc(F)c(F)c2)n(-c2ccc(S(C)(=O)=O)cc2)c1C | > 100 µM |  |  | 
CCOC(=O)Cc1cc(-c2ccc(C(F)(F)F)cc2)n(-c2ccc(S(C)(=O)=O)cc2)c1C | > 100 µM |  |  | 
CCOC(=O)Cc1cc(-c2ccc(C)cc2)n(-c2ccc(S(C)(=O)=O)cc2)c1C | > 100 µM | > 50 | 1.96 µM | 
CCOC(=O)Cc1cc(-c2ccc(S(C)(=O)=O)cc2)n(-c2ccc(OC)cc2)c1C | > 100 µM | > 4000 | 0.026 µM | 
CCOC(=O)Cc1cc(-c2ccc(F)c(F)c2)n(-c2ccc(S(C)(=O)=O)cc2)c1C | > 100 µM | > 19 | 5.4 µM | 
CCOC(=O)Cc1cc(-c2ccccc2)n(-c2ccc(S(C)(=O)=O)cc2)c1C | > 100 µM |  |  | 
CCOC(=O)Cc1cc(-c2ccc(S(C)(=O)=O)cc2)n(-c2cccc(F)c2)c1C | > 100 µM | > 10000 |  | IC50 [4]: 20.4 µM; Activity (Rattus norvegicus [5]): 43.4 g; Activity (Mus musculus [6]): 15.7; IC50 [7]: 2.1 µM; Activity (Rattus norvegicus [8]): 55.2 g; Activity (Mus musculus [9]): 28.9; Activity (Rattus norvegicus [10]): 49.8 g; Activity (Rattus norvegicus [11]): 95.5%
CCOC(=O)Cc1cc(-c2ccc(F)cc2)n(-c2ccc(S(C)(=O)=O)cc2)c1C | > 100 µM | > 250 | 0.4 µM | 
CCOC(=O)C(=O)c1cc(-c2ccccc2)n(-c2ccc(S(C)(=O)=O)cc2)c1C | > 100 µM |  |  | 
CCOC(=O)C(=O)c1cc(-c2ccc(S(C)(=O)=O)cc2)n(-c2cccc(F)c2)c1C | > 100 µM | > 100 | 0.9 µM | 

Now from value to compound, other results behind:

IC50 [1] | Ratio IC50 (Mus musculus [2]) | IC50 [3] | Structure (SMILES) | other results
> 100 µM |  |  | CCOC(=O)C(=O)c1cc(-c2ccc(F)cc2)n(-c2ccc(S(C)(=O)=O)cc2)c1C | 
> 100 µM |  |  | CCOC(=O)C(=O)c1cc(-c2ccc(C)cc2)n(-c2ccc(S(C)(=O)=O)cc2)c1C | 
> 100 µM |  |  | CCOC(=O)C(=O)c1cc(-c2ccc(C(F)(F)F)cc2)n(-c2ccc(S(C)(=O)=O)cc2)c1C | 
> 100 µM | > 9 | 11 µM | CCOC(=O)C(=O)c1cc(-c2ccc(S(C)(=O)=O)cc2)n(-c2ccc(F)cc2)c1C | 
> 100 µM | > 100 | 0.94 µM | CCOC(=O)C(=O)c1cc(-c2ccc(S(C)(=O)=O)cc2)n(-c2ccc(OC)cc2)c1C | 
> 100 µM |  |  | CCOC(=O)C(=O)c1cc(-c2ccc(OC)cc2)n(-c2ccc(S(C)(=O)=O)cc2)c1C | 
> 100 µM | > 200 | 0.55 µM | CCOC(=O)Cc1cc(-c2ccc(OC)cc2)n(-c2ccc(S(C)(=O)=O)cc2)c1C | 
